This is an account of results in patent publication US20130101664A1, “MUC1 LIGAND TRAPS FOR USE IN TREATING CANCERS” (priority 2011, published 2013).

The subject of assay [1] is ZR-75-1 human breast carcinoma xenograft. The format is in vivo. The conditions noted are these: doxorubicin 6 mg/kg i.v. Q4D×3.
Experimental: ZR-75-1 human breast carcinoma bearing nu/nu mice were dosed with either doxorubicin alone (squares) or in combination with 1 mg/kg GO-101 i.p daily×21 days (circles). Tumors were measured twice a week.
ZR-75-1 Hormone-dependent Breast Carcinoma Xenograft Model: Preliminary 1st TRAP Study in Combination with Doxorubicin (mean tumor volume+SE). ZR-75-1 human breast carcinoma bearing nu/nu mice were dosed with either doxorubicin 6 mg/kg i.v. Q4D×3 (squares) or 1 mg/kg GO-101 i.p daily×21 days+doxorubicin 6 mg/kg i.v. Q4D×3 (circles). Mice were weighed 2-3 times a week and tumor measurements were also performed 2-3 times a week. Points, mean tumor volumes±SE.
GO-101. To avoid freeze/thaw cycles, GO-101 protein (HG-batch GENU001) was prepared as multiple aliquots of frozen solution in PBS into individual treatment doses. The frozen tubes were stored at −80° C. until initiation of dosing. On each day of treatment, the appropriate tubes were allowed to thaw at room temperature. The resulting solution in each tube was clear and colorless with a pH of ˜6.5.
Upon receipt, the clear, red solution was stored at 4° C. protected from light. Dosing solutions were prepared just prior to each treatment by dilution with saline.
About 9-10 weeks old female mice (on the day of treatment) (CRL: NUFoxn1nu) were obtained from Charles River Labs. The mice were fed irradiated Rodent Diet 5053 and water ad libitum. […]
Assay [2] has as its system ZR-75-1 breast carcinoma cells. The experiment in a line: Cell proliferation by trypan blue exclusion, GO-101 with oxidative stress (H2O2). The format is cell-based, human. The note with it: 500 nM GO-101 and/or 1 mM H2O2, 3 days, compared to mock conditions. On the procedure: FIG. 8. ZR-75-1 human breast carcinoma cells were treated with 500 nM GO-101 and/or 1 mM H2O2 for 3 days and the cell proliferation was measured by trypan blue exclusion method. The percent proliferation is shown to that compared with control.
To assess the effects of GO-101 on sensitivity of human carcinoma cells to oxidative stress, the inventors treated ZR-75-1 breast carcinoma cells with 500 nM GO-101 in the presence and absence of […]. As a control, cells were also separately treated with hFc (data not shown). Following treatment for 3 days, viable cells were then counted using trypan blue exclusion. […] Importantly, the ZR-75-1 cells exposed to 500 nM GO-101, but not hFc, was associated with ˜42% growth inhibition. However, there was a ˜90% growth inhibition when cells were treated with both H2O2 and GO-101 (FIG. 8).

For assay [3] the following is noted: severe sepsis; decrease from about 31%; cited from earlier work.

Take `COc1cccc2c1C(=O)c1c(O)c3c(c(O)c1C2=O)C[C@@](O)(C(=O)CO)C[C@@H]3O[C@H]1C[C@H](N)[C@H](O)[C@H](C)O1` [doxorubicin]: the “tumor regressions / tumor free survivors” value in assay [1] is reported as “neither tumor regressions nor tumor free survivors”. In addition, the “anti-tumor activity based upon tumor growth delay” value in assay [1] (p=0.0356) is recorded as “significant”.
As to `OO` [H2O2], in assay [2], the “inhibition in cell proliferation / growth inhibition” value is recorded as roughly 66%.
Regarding drotrecogin alfa, in assay [3], the mortality result is “about 25%”.
